From patent US20170368089A1, “COMPOSITION FOR PREVENTING OR TREATING COLITIS” (UNIVERSITY-INDUSTRY COOPERATION GROUP OF KYUNG HEE …, priority 2012, published 2017)

Assays:
[1] = test system: model animal with acute colitis induced by TNBS; assay: Acute colitis induced by TNBS in mice, appearance analysis of colon (colon length, macroscopic score), first experiment; format: in vivo, ICR male mice; details: Table 3 (group 2); TNBS-treated mice, 10 mg/kg orally, 3 days
Protocol: 4-week ICR male mice (24 to 27 g) were purchased from OrientBio. All the mice were bred under the controlled environmental conditions of 50±10% of humidity and 25±2° C. of temperature, and the lighting was repeatedly on for 12 hours and off for 12 hours. A feed for a standard experiment (Samyang, Korea) was used as a feed, and water was freely taken. For all the experiments, one group was 6 mice. […] Meanwhile, 0.1 ml of normal saline solution was orally administered to the normal group. Since then, from the next day, the sample dissolved in normal saline solution was orally administered in the volume that was decided in advance one time a day for 3 days. At the next day after completing the sample administration, the experimental animals were suffocated to death with carbon dioxide, the colon from appendix to the region just before the anus was removed from the colon region. The scores about the removed colons were estimated by observing the appearances and the lengths of the colons according to the following criteria (Hollenbach, and the like, the criteria about the level of colon in 2005) as listed in Table 1. […] In addition, some of the content in the colon was collected in order to analyze the rumen microorganisms, and then, was stored in a freezer of −80° C. From the tissue of colon, the content in the colon was completely removed and then the tissue of colon was washed with normal saline solution. Since then, some of the tissue was fixed with 4% formaldehyde fixing solution in order to be used as a sample for a histopathological examination, and the rest was stored in a freezer of −80° C. for a molecular biological analysis.

IL-1 beta = IL-1 beta expression in colon tissue (ELISA), TNBS colitis, second experiment; format: in vivo, ICR male mice; details: Table 9, extract-based samples, TNBS-treated mice, 10 mg/kg orally, 3 days
Protocol: Among the experimental groups, one group was set as a normal group, and for the experimental animals in other groups, colitis was induced with 2,4,6-trinitrobenzenesulfonic acid (TNBS). In detail, after lightly anesthetizing the experimental animals with ether, 0.1 ml of the solution prepared by mixing […] of 2,4,6-Trinitrobenzene sulfonic acid (NBS) solution with 50% ethanol was injected into the colon through the anus using a syringe having 1 ml volume and oval point, respectively; and then, the syringe was vertically picked up, and then, maintained for 30 seconds to induce the inflammation. Meanwhile, 0.1 ml of normal saline solution was orally administered to the normal group. Since then, from the next day, the sample dissolved in normal saline solution was orally administered in the volume that was decided in advance one time a day for 3 days. […]
250 μl of RIPA butter including protease inhibitor cocktail was added to 100 mg of the colon tissue of experimental animal, and then, the colon tissue was homogenized. […] While the supernatant was stored at −80° C., the expression amounts of IL-1 beta, IL-6, and TNF-alpha were measured using a 96-well ELISA plate kits (Pierce Biotechology, Inc., Rockford, Ill., USA).

Myeloperoxidase (MPO) = assay: MPO activity of colon tissue, TNBS acute colitis, third experiment; format: in vivo, male mice (C57BL/6); details: Table 12; TNBS-treated mice, 10 mg/kg orally, 3 days
Protocol: Meanwhile, 0.1 ml of normal saline solution was orally administered to the normal group. Since then, from the next day, the sample dissolved in normal saline solution was orally administered in the volume that was decided in advance one time a day for 3 days. At the next day after completing the sample administration, the experimental animals were suffocated to death with carbon dioxide, and the colon from appendix to the region just before the anus was removed from the colon region. At this time, as a medicine sample, the experiments using the butanol-soluble fraction of the Anemarrhena asphodeloides Bunge extract, Mangiferin, and a combined extract were separately performed at a distance of time, respectively, and the effects of the medicine samples on preventing or treating colitis were reasonably analyzed based on the group supplied with normal saline solution instead of a specific medicine in the model animals with acute colitis induced by TNBS for each of the experiments. […] Since then, the homogenized colon tissue was centrifuged under the conditions of 4° C. and 13000 rpm for 15 minutes, and then, the supernatant thereof was obtained. […] Since then, 100 μl of a stop solution was added to stop the reaction, and then, the absorbance was measured at 450 nm using an ELISA reader.

IL-6 = IL-6 expression in colon tissue (ELISA), TNBS acute colitis, third experiment; format: in vivo, male mice (C57BL/6); details: Table 12; TNBS-treated mice, 10 mg/kg orally, 3 days
Protocol: Meanwhile, 0.1 ml of normal saline solution was orally administered to the normal group. Since then, from the next day, the sample dissolved in normal saline solution was orally administered in the volume that was decided in advance one time a day for 3 days. At the next day after completing the sample administration, the experimental animals were suffocated to death with carbon dioxide, and the colon from appendix to the region just before the anus was removed from the colon region. At this time, as a medicine sample, the experiments using the butanol-soluble fraction of the Anemarrhena asphodeloides Bunge extract, Mangiferin, and a combined extract were separately performed at a distance of time, respectively, and the effects of the medicine samples on preventing or treating colitis were reasonably analyzed based on the group supplied with normal saline solution instead of a specific medicine in the model animals with acute colitis induced by TNBS for each of the experiments. […] While the supernatant was stored at −80° C., the expression amounts of IL-1 beta, IL-6, and TNF-alpha, which were proinflammatory cytokines, and the expression amount of IL-10, which was anti-inflammatory cytokine, were measured using a 96-well ELISA plate kits (Pierce Biotechology, Inc., Rockford, Ill., USA).

Nc1ccc(O)c(C(=O)O)c1 [mesalazine, Mesalazine]
Colon length [1]: 7.1 ± 0.46 cm
IL-1 beta conc. (IL-1 beta): 16.30 ± 3.38 pg/mg
MPO activity (Percentage to group supplied with normal saline solution after treating TNBS) (Myeloperoxidase (MPO)): 47.8%
IL-6 (Percentage to group supplied with normal saline solution after treating TNBS) (IL-6): 26.6%
